{
  "source": "patent US6796312B2",
  "about": "“Process and apparatus for the removal of toxic components of tobacco smoke and the standardization of the health hazards related to those components” (priority 2001, dated 2004)",
  "key": {"[1]": {"tested_on": "human oral fluid-cell harvests", "test": "cells", "format": "cell-based"}, "[2]": {"tested_on": "peripheral inflammatory cells of oral fluid-cell harvests", "format": "cell-based, human"}, "[3]": {"tested_on": "polymorphonuclear neutrophils", "conditions": "cited from earlier work"}, "[4]": {"tested_on": "granular masses and polymorphonuclear neutrophils", "conditions": "cited from earlier work"}, "[5]": {"molecular_target": "T1, myeloperoxidase (Homo sapiens, UniProt P05164)", "T1 construct": "Homogenates were centrifuged at 1,300×g for ten (10) minutes and the supernatant extracts were kept during the course of analysis; from tissue; host or cells: human sputum / oral fluid-cell harvest (neutrophil-rich) homogenate supernatants", "T1 sequence (P05164 49-745)": "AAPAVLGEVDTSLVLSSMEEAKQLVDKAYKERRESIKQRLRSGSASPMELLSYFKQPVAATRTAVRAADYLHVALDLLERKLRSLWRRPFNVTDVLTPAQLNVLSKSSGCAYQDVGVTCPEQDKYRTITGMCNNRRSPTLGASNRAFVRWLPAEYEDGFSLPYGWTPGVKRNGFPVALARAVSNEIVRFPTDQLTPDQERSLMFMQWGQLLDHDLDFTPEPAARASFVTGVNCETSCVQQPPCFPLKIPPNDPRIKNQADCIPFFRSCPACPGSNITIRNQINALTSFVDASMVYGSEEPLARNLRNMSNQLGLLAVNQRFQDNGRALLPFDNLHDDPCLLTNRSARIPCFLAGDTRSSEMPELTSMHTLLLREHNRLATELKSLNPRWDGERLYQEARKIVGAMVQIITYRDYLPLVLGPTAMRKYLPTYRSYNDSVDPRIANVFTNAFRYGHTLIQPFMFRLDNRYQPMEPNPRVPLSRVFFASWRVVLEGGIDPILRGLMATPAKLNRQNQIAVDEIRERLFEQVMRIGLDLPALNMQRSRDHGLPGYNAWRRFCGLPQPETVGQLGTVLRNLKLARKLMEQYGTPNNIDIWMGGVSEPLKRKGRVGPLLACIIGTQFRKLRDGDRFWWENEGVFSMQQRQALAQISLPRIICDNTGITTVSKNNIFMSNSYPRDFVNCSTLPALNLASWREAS", "test": "NADH2-NDGA-myeloperoxidase spectrophotometric assay of sputum / oral fluid-cell harvest supernatant extracts", "format": "biochemical", "conditions": "for IC50: read-out: concentration that produces fifty (50) percent inhibition of myeloperoxidase", "method": "Aliquots of fresh human oral fluid-cell harvests as exemplified above or fresh human sputum collected by the donors over a twenty-four (24) hour period were disrupted employing either Ten Broeck glass homogenizers or the Virtis homogenizer. Homogenates were centrifuged at 1,300×g for ten (10) minutes and the supernatant extracts were kept during the course of analysis at zero degrees centigrade (0° C.). Other reactants were incubated at thirty-five degrees centigrade (35° C.). Reduced nicotinamide-adenine dinucleotide oxidase and norhydroguaiaretic acid-myeloperoxidase activities were followed at 340 mμ or (nm) employing the Beckman Model DU Spectrophotometer temperature regulated at thirty-five degrees centigrade (35° C.). All specific reactions were run as duplicate assays.\nAlthough this oxidation was very small under the conditions of experiment, an interaction correction factor was determined and applied to all reduced nicotinamide-adenine dinucleotide-nordihydroguaiaretic acid-mycloperoxidase assay reactions.\nThe velocity constants for the myeloperoxidase reactions behaved and were computed in accord with zero order reaction kinetics. […] In most instances, the activities followed first order reaction kinetics for a short interval and then ceased abruptly. The latter may be due to the presence or accumulation of variable concentrations of an unidentified inhibitor or inhibitors in the supernatants. Since in all cases the oxidase activities were very slow relative to the myeloperoxidase activities, the difference in optical density over the course of the reactions (up to ten (10) minutes) for the oxidase system were computed in the same manner as the data for the rapid myeloperoxidase system. Thus, all velocity constants were expressed in μ Moles of reduced nicotinamide-adenine dinucleotide oxidized per minute per ml. of oral fluid-cell harvest or sputum. The small oxidase activities were applied as a correction factor in the computation of all myeloperoxidase velocity constants.\nThe pH optimum of the myeloperoxidase system was determined. When fresh nordihydroguaiaretic acid solutions were prepared and interaction rates with reduced nicotinamide-adenine dinucleotide were subtracted as controls from oral lavage and sputum supernatant myeloperoxidase activities, the net velocity constants were zero (0). On the other hand, five (5) hour old nordihydroguaiaretic acid solutions yielded optimal activities at approximately pH 7.4. Subsequent experiments uniformly were carried out at pH 7.0 using five (5) hour old solutions to minimize the rates of the auto oxidation of nordihydroguaiaretic acid and oxidation of reduced nicotinamide-adenine dinucleotide by nordihydroguaiaretic acid when employing alkaline pH's."}, "[6]": {"tested_on": "myeloperoxidase (verdoperoxidase)", "conditions": "cited from earlier work"}, "[7]": {"conditions": "Homo sapiens, read-out: inhibition of aerobic (d) glucose dependent metabolism"}, "[8]": {"conditions": "Homo sapiens, read-out: inhibition of anaerobic glucolysis"}, "[9]": {"conditions": "Homo sapiens, read-out: inhibition of aerobic endogenous metabolism"}, "[10]": {"conditions": "Homo sapiens, read-out: inhibition of anaerobic glucose metabolism"}, "[11]": {"conditions": "with added 0.024 Molar hydrogen peroxide"}},
  "note": "Like-named read-outs stand apart in the source and are kept apart here.",
  "data": [
    {"molecule": "CC=O", "note": "[Acetaldehyde, acetaldehyde]", "values": [
      {"measurement": "inhibition at 100 µM", "setting": "[1]; [7]", "value": 25, "unit": "%"},
      {"measurement": "inhibition at 1000 µM", "setting": "[1]; [7]", "value": 60, "unit": "%"},
      {"measurement": "inhibition at 100 µM", "setting": "[1]; [8]", "value": 10, "unit": "%"},
      {"measurement": "inhibition at 1000 µM", "setting": "[1]; [8]", "value": 30, "unit": "%"}
    ]},
    {"molecule": "C=CC=O", "note": "[Acrolein, acrolein]", "values": [
      {"measurement": "inhibition at 1 µM", "setting": "[1]; [7]", "value": 49, "unit": "%"},
      {"measurement": "inhibition at 2.5 µM", "setting": "[1]; [7]", "value": 81, "unit": "%"},
      {"measurement": "inhibition at 1 µM", "setting": "[1]; [9]", "value": 48, "unit": "%"},
      {"measurement": "inhibition at 2.5 µM", "setting": "[1]; [9]", "value": 66, "unit": "%"},
      {"measurement": "inhibition at 10 µM", "setting": "[1]; [10]", "value": 18, "unit": "%"},
      {"measurement": "inhibition at 25 µM", "setting": "[1]; [10]", "value": 43, "unit": "%"},
      {"measurement": "peripheral inflammatory cell function", "setting": "[2]", "value": "impaired to virtual total loss of function"}
    ]},
    {"molecule": "OO", "note": "[Hydrogen peroxide, hydrogen peroxide]", "values": [
      {"measurement": "inhibition of hydrogen peroxide-dependent nitro-blue tetrazolium reducing enzyme activity", "setting": "[3]; 0.15 Molar hydrogen peroxide", "value": "totally"},
      {"measurement": "inhibition of endogenous nitro-blue tetrazolium reducing enzyme activity in granular masses", "setting": "[4]; 0.15 Molar hydrogen peroxide", "value": 100, "unit": "%"}
    ]},
    {"molecule": "NO", "note": "[Hydroxylamine, hydroxylamine]", "values": [
      {"measurement": "IC50", "setting": "[5]; supernatant extracts", "value": 0.33, "unit": "mM"},
      {"measurement": "inhibition of hydrogen peroxide-dependent nitro-blue tetrazolium reducing enzyme activity", "setting": "[3]; [11]", "value": "inhibited markedly"},
      {"measurement": "inhibition of endogenous reactions in polymorphonuclear neutrophils and granular masses", "setting": "[4]", "value": "not inhibited"},
      {"measurement": "inhibition of myeloperoxidase activity", "setting": "[6]; Agner 1941, 1958", "value": "inhibited"}
    ]},
    {"molecule": "[O]N=O", "note": "[Nitrogen dioxide, nitrogen dioxide]", "values": [
      {"measurement": "inhibition of aerobic metabolism", "setting": "[1]", "value": "variable and, at times, doubtful inhibitions"},
      {"measurement": "peripheral inflammatory cell function", "setting": "[2]", "value": "enhanced peripheral inflammatory cell function"}
    ]},
    {"molecule": "[F-].[Na+]", "note": "[Sodium Flouride, sodium fluoride]", "values": [
      {"measurement": "IC50", "setting": "[5]", "value": 63, "unit": "mM"},
      {"measurement": "inhibition of myeloperoxidase activity", "setting": "[6]", "value": "inhibited"}
    ]},
    {"molecule": "[Cu+2]", "note": "[cupric ion]", "values": [
      {"measurement": "inhibition of exogenous hydrogen peroxide-dependent reaction in polymorphonuclear neutrophils", "setting": "[3]; low concentrations", "value": "inhibited completely"},
      {"measurement": "inhibition of endogenous reactions in granular masses and polymorphonuclear neutrophils", "setting": "[4]; low concentrations", "value": "inhibited completely"}
    ]},
    {"molecule": "O=C(O)CI", "note": "[iodoacetate]", "values": [
      {"measurement": "inhibition of exogenous hydrogen peroxide-dependent reaction in polymorphonuclear neutrophils", "setting": "[3]", "value": "inhibited completely"},
      {"measurement": "inhibition of endogenous reactions in granular masses and polymorphonuclear neutrophils", "setting": "[4]", "value": "inhibited completely"}
    ]},
    {"molecule": "nitric oxide [Nitrogen oxide]", "values": [
      {"measurement": "influence on metabolism", "setting": "[1]", "value": "did not influence"},
      {"measurement": "influence on cell function", "setting": "[2]", "value": "did not influence"}
    ]},
    {"molecule": "crystalline catalase (protein, UniProt P00432 2-527, looked up) Catalase: ADNRDPASDQMKHWKEQRAAQKPDVLTTGGGNPVGDKLNSLTVGPRGPLLVQDVVFTDEMAHFDRERIPERVVHAKGAGAFGYFEVTHDITRYSKAKVFEHIGKRTPIAVRFSTVAGESGSADTVRDPRGFAVKFYTEDGNWDLVGNNTPIFFIRDALLFPSFIHSQKRNPQTHLKDPDMVWDFWSLRPESLHQVSFLFSDRGIPDGHRHMNGYGSHTFKLVNANGEAVYCKFHYKTDQGIKNLSVEDAARLAHEDPDYGLRDLFNAIATGNYPSWTLYIQVMTFSEAEIFPFNPFDLTKVWPHGDYPLIPVGKLVLNRNPVNYFAEVEQLAFDPSNMPPGIEPSPDKMLQGRLFAYPDTHRHRLGPNYLQIPVNCPYRARVANYQRDGPMCMMDNQGGAPNYYPNSFSAPEHQPSALEHRTHFSGDVQRFNSANDDNVTQVRTFYLKVLNEEQRKRLCENIAGHLKDAQLFIQKKAVKNFSDVHPEYGSRIQALLDKYNEEKPKNAVHTYVQHGSHLSAREKANL", "values": [
      {"measurement": "inhibition of myeloperoxidase activity", "setting": "[5]; 14 units of crystalline catalase added", "value": "~50", "unit": "%"},
      {"measurement": "inhibition of myeloperoxidase activity", "setting": "[5]; 41 units of crystalline catalase added", "value": "~90", "unit": "%"},
      {"measurement": "inhibition of hydrogen peroxide-dependent nitro-blue tetrazolium reducing enzyme activity", "setting": "[3]; [11]", "value": "inhibited markedly"},
      {"measurement": "inhibition of endogenous reactions in polymorphonuclear neutrophils and granular masses", "setting": "[4]", "value": "not inhibited"}
    ]}
  ]
}
